The results in this text go back to US20240174647A1 (NEURON23, INC., priority 2022, published 2024).

This assay has as its target wt human LRRK2, catalytic site (Homo sapiens (Human), UniProt Q5S007). Put plainly: TR-FRET LanthaScreen Tb Kinase Activity Assay (LRRK2 kinase inhibition). Format: biochemical. Particulars: 2 nM wt human LRRK2, 400 nM fluorescein-ERM (LRRKtide) peptide, 38 μM ATP, 120 minutes at room temperature. An outline of the steps: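 LanthaScreen TR-FRET with 2 nM wt human LRRK2 catalytic site, 400 nM fluorescein-ERM (LRRKtide) peptide and 38 µM ATP in Kinase Buffer A; 120 min at room temperature. Phosphorylation detected with EDTA and Tb-anti-pLRRKtide after 60 min; IC50 from emission ratios.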
In general terms: TR-FRET usually uses a lanthanide donor and a delayed reading to cut background.

pIC50: −log10 of the molar value. Some results are limits rather than exact numbers.

wt human LRRK2, catalytic site, sequence (Q5S007 1879-2138): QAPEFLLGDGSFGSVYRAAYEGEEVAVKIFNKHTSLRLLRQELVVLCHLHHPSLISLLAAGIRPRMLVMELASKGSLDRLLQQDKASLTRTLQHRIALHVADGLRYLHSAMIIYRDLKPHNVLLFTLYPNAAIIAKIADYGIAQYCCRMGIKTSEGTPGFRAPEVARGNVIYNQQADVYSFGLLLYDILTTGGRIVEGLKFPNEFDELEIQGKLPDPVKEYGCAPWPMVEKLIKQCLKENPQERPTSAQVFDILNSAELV

With `CC1(Nc2nc(Nc3cccc4c3cnn4CC#N)ncc2C(F)(F)F)CC1` [Example 105, 2-(4-((4-((1-methylcyclopropyl)amino)-5-(trifluoromethyl)pyrimidin-2-yl)amino)-1H-indazol-1-yl)acetonitrile], the pIC50 (as a rule, the IC50 on a negative log10 scale, so that one unit is a factor of ten) is greater than 7.30. `N#CCn1ncc2c(Nc3ncc(C(F)(F)F)c(NCC(F)(F)F)n3)cccc21` [Example 106, 2-(4-((4-((2,2,2-trifluoroethyl)amino)-5-(trifluoromethyl)pyrimidin-2-yl)amino)-1-indazol-1-yl)acetonitrile] gave a pIC50 greater than 7.30. For `CN(C)c1nc(Nc2cccc3c2cnn3CC#N)ncc1C(F)(F)F` [Example 107, 2-(4-((4-(dimethylamino)-5-(trifluoromethyl)pyrimidin-2-yl)amino)-1H-indazol-1-yl)acetonitrile], the negative-log IC50 (pIC50) was greater than 7.30. In turn, `CC(C)Nc1nc(Nc2cccc3c2cnn3C(C)(C)C#N)ncc1C(F)(F)F` [Example 108, 2-(4-((4-(isopropylamino)-5-(trifluoromethyl)pyrimidin-2-yl)amino)-1H-indazol-1-yl)-2-methylpropanenitrile] had a negative-log IC50 (pIC50) greater than 7.30. Next, `CNc1nc(Nc2ccc(C3CCN(C)CC3)c3c2cnn3CC#N)ncc1C(F)(F)F` [Example 109, 2-(4-((4-(methylamino)-5-(trifluoromethyl)pyrimidin-2-yl)amino)-7-(1-methylpiperidin-4-yl)-1H-indazol-1-yl)acetonitrile]: greater than 7.30; `CC(C)Nc1nc(Nc2cccc3c2cnn3CC#N)ncc1C(F)(F)F` [Example 110, 2-(4-((4-(isopropylamino)-5-(trifluoromethyl)pyrimidin-2-yl)amino)-1H-indazol-1-yl)acetonitrile]: no more than 6.70. As for `CNc1nc(Nc2ccc(Cl)c3c2cnn3CC#N)ncc1C(F)(F)F` [Example 111, 2-(7-chloro-4-((4-(methylamino)-5-(trifluoromethyl)pyrimidin-2-yl)amino)-1H-indazol-1-yl)acetonitrile], the pIC50 was greater than 7.30. `CC(C)(C#N)n1ncc2c(Nc3ncc(C(F)(F)F)c(NCC(F)(F)F)n3)cccc21` [Example 112, 2-methyl-2-(4-((4-((2,2,2-trifluoroethyl)amino)-5-(trifluoromethyl)pyrimidin-2-yl)amino)-1H-indazol-1-yl)propanenitrile]: the pIC50 was greater than 7.30. The compound `CC(C)(C#N)n1ncc2c(Nc3ncc(C(F)(F)F)c(NC4CCC4)n3)cccc21` [Example 113, 2-(4-((4-(cyclobutylamino)-5-(trifluoromethyl)pyrimidin-2-yl)amino)-1H-indazol-1-yl)-2-methylpropanenitrile] had a pIC50 greater than 7.30. For the compound `CNc1nc(Nc2cc3[nH]ncc3cc2F)ncc1C(F)(F)F` [Example 114, N^2-(5-fluoro-1H-indazol-6-yl)-N^4-methyl-5-(trifluoromethyl)pyrimidine-2,4-diamine], the pIC50 was greater than 7.30. Next, `CNc1nc(Nc2ccnc3ccnn23)ncc1C(F)(F)F` [Example 115, N^4-methyl-N^2-pyrazolo[1,5-a]pyrimidin-7-yl-5-(trifluoromethyl)pyrimidine-2,4-diamine]: no more than 6.70. In the case of `CNc1nc(Nc2cc3[nH]ncc3cc2Cl)ncc1C(F)(F)F` [Example 116], the negative logarithm of the IC50 (pIC50) was greater than 7.30. Under `CNc1nc(Nc2ncn3ccccc23)ncc1C(F)(F)F` [Example 117, N^2-(imidazo[1,5-a]pyridin-1-yl)-N4-methyl-5-(trifluoromethyl)pyrimidine-2,4-diamine] stands no more than 6.70; under `CNc1nc(Nc2cnn3ccc(C#N)cc23)ncc1C(F)(F)F` [Example 118, 3-[[4-(methylamino)-5-(trifluoromethyl)pyrimidin-2-yl]amino]pyrazolo[1,5-a]pyridine-5-carbonitrile], greater than 7.30. Take `CNc1nc(Nc2cnn3cc(C#N)ccc23)ncc1C(F)(F)F` [Example 119, 3-((4-(methylamino)-5-(trifluoromethyl)pyrimidin-2-yl)amino)pyrazolo[1,5-a]pyridine-6-carbonitrile]: the pIC50 was greater than 7.30.

The compound `C=Cc1cc2cn[nH]c2cc1Nc1ncc(C(F)(F)F)c(NC)n1` [Example 120, N^4-methyl-5-(trifluoromethyl)-N^2-(5-vinyl-1H-indazol-6-yl)pyrimidine-2,4-diamine] gave a pIC50 of 6.70 to 7.30. Under `CNc1nc(Nc2cccc3nccn23)ncc1C(F)(F)F` [Example 121, N^2-imidazo[1,2-a]pyridin-5-yl-N^4-methyl-5-(trifluoromethyl)pyrimidine-2,4-diamine] stands no more than 6.70; under `CCc1cc2cn[nH]c2cc1Nc1ncc(C(F)(F)F)c(NC)n1` [Example 122, N2-(5-ethyl-1H-indazol-6-yl)-N4-methyl-5-(trifluoromethyl)pyrimidine-2,4-diamine], 6.70 to 7.30; under `CNc1nc(Nc2cc3[nH]ncc3cc2C(F)(F)F)ncc1C(F)(F)F` [Example 123, N^4-methyl-5-(trifluoromethyl)-N^2-[5-(trifluoromethyl)-1H-indazol-6-yl]pyrimidine-2,4-diamine], no more than 6.70. In turn, `CNc1nc(Nc2cccc3nncn23)ncc1C(F)(F)F` [Example 124, N^4-methyl-N^2-([1,2,4]triazolo[4,3-a]pyridin-5-yl)-5-(trifluoromethyl) pyrimidine-2,4-diamine] showed a pIC50 of no more than 6.70. The compound `CNc1nc(Nc2cn(C)c3ncncc23)ncc1C(F)(F)F` [Example 125, 4-methyl-N2(7-methylpyrrolo[2,3-d]pyrimidin-5-yl)-5-(trifluoromethyl) pyrimidine-2,4-diamine] showed a negative logarithm of the IC50 (pIC50) greater than 7.30. `CNc1nc(Nc2ccc3cnccn23)ncc1C(F)(F)F` [Example 126, N^4-methyl-N^2-pyrrolo[1,2-a]pyrazin-6-yl-5-(trifluoromethyl)pyrimidine-2,4-diamine] gave a pIC50 of no more than 6.70. In turn, `CNc1nc(Nc2cccc3c2CC(=O)N3)ncc1C(F)(F)F` [Example 127, 4-[[4-(methylamino)-5-(trifluoromethyl)pyrimidin-2-yl]amino]indolin-2-one] had a negative logarithm of the IC50 (pIC50) greater than 7.30. Under `CNc1cc(Nc2nn(C)c3ncncc23)ncc1C(F)(F)F` [Example 128, N^4-methyl-N^2-(1-methyl-1H-pyrazolo[3,4-d]pyrimidin-3-yl)-5-(trifluoromethyl)pyridine-2,4-diamine] stands 6.70 to 7.30; under `CNc1nc(Nc2cc3[nH]ncc3cc2OC(F)(F)F)ncc1C(F)(F)F` [Example 129, N4-methyl-N2-[5-(trifluoromethoxy)-1H-indazol-6-yl]-5-(trifluoromethyl) pyrimidine-2,4-diamine], greater than 7.30; under `CNc1nc(Nc2cccn3cncc23)ncc1C(F)(F)F` [Example 130, N^2-(imidazo[1,5-a]pyridin-8-yl)-N^4-methyl-5-(trifluoromethyl)pyrimidine-2,4-diamine], greater than 7.30. `CNc1nc(Nc2cn(CC#N)c3cnccc23)ncc1C(F)(F)F` [Example 131, 2-[3-[[4-(methylamino)-5-(trifluoromethyl)pyrimidin-2-yl]amino]pyrrolo[2,3-c]pyridin-1-yl]acetonitrile] gave a negative logarithm of the IC50 (pIC50) greater than 7.30. In the case of `O=S(=O)(C1CC1)n1ncc2c(Nc3ncc(C(F)(F)F)c(C4CC4)n3)cccc21` [Example 132, N-(4-cyclopropyl-5-(trifluoromethyl)pyrimidin-2-yl)-1-(cyclopropylsulfonyl)-1H-indazol-4-amine], the negative-log IC50 (pIC50) is 6.70 to 7.30. `COCCn1ncc2c(Nc3ncc(C(F)(F)F)c(NC4CC4)n3)cccc21` [Example 133, N^4-cyclopropyl-N^2-[1-(2-methoxyethyl)indazol-4-yl]-5-(trifluoromethyl) pyrimidine-2,4-diamine] had a negative logarithm of the IC50 (pIC50) greater than 7.30.

Compound `FC(F)Cn1ncc2c(Nc3ncc(C(F)(F)F)c(NC4CC4)n3)cccc21` [Example 134, N^4-cyclopropyl-N2-[1-(2,2-difluoroethyl)indazol-4-yl]-5-(trifluoromethyl) pyrimidine-2,4-diamine] showed a pIC50 greater than 7.30.

As to `CC(C)S(=O)(=O)n1ncc2c(Nc3ncc(C(F)(F)F)c(NC4CC4)n3)cccc21` [Example 135, N^4-cyclopropyl-N^2-(1-isopropylsulfonylindazol-4-yl)-5-(trifluoromethyl) pyrimidine-2,4-diamine], the negative logarithm of the IC50 (pIC50) was greater than 7.30. Next, `COCCS(=O)(=O)n1ncc2c(Nc3ncc(C(F)(F)F)c(NC4CC4)n3)cccc21` [Example 136, N^4-cyclopropyl-N^2-(1-((2-methoxyethyl)sulfonyl)-1H-indazol-4-yl)-5-(trifluoromethyl)pyrimidine-2,4-diamine]: greater than 7.30; `O=S(=O)(C1CC1)n1ncc2c(Nc3ncc(C(F)(F)F)c(NCCF)n3)cccc21` [Example 137, N^2-(1-(cyclopropylsulfonyl)-1H-indazol-4-yl)-N^4-(2-fluoroethyl)-5-(trifluoromethyl) pyrimidine-2,4-diamine]: greater than 7.30. With `CS(=O)(=O)CCNc1nc(Nc2cccc3c2cnn3S(=O)(=O)C2CC2)ncc1C(F)(F)F` [Example 138, N^2-(1-(cyclopropylsulfonyl)-1H-indazol-4-yl)-N^4-(2-(methylsulfonyl)ethyl)-5-(trifluoromethyl)pyrimidine-2,4-diamine], the pIC50 was greater than 7.30. `CS(=O)(=O)CCn1ncc2c(Nc3ncc(C(F)(F)F)c(NC4CC4)n3)cccc21` [Example 139, N^4-cyclopropyl-N^2-(1-(2-(methylsulfonyl)ethyl)-1H-indazol-4-yl)-5-(trifluoromethyl)pyrimidine-2,4-diamine] gave a negative logarithm of the IC50 (pIC50) greater than 7.30. Compound `COCCn1ncc2c(Nc3ncc(C(F)(F)F)c(NC(C)C)n3)cccc21` [Example 140, N^4-isopropyl-N^2-[1-(2-methoxyethyl)indazol-4-yl]-5-(trifluoromethyl)pyrimidine-2,4-diamine] had a negative-log IC50 (pIC50) greater than 7.30. `OCCNc1nc(Nc2cccc3c2cnn3CC(F)F)ncc1C(F)(F)F` [Example 141, 2-[[2-[[1-(2,2-difluoroethyl)indazol-4-yl]amino]-5-(trifluoromethyl)pyrimidin-4-yl]amino]ethanol]: the negative-log IC50 (pIC50) is greater than 7.30.
